Assay results: US12595281B2, “Indodicarbocyanine phosphoramidites with bathochromically shifted absorption and emission, and tunable hydrophobicity” (The Government of the United States of America, as …, priority 2022, dated 2026)

Test: Methanol content to elute DNA-dye sequences from reverse phase HPLC column
Format: physicochemical
Conditions: average over sequences HJA-D and HJAcomp containing the dye
Protocol: Desalted oligo solutions were then analyzed by liquid chromatography-mass spectrometry (LCMS, see Characterization below for more detail) to confirm the presence of correct sequence in the crude product. Samples containing the confirmed dye-labeled DNA sequences were then pooled and purified by preparatory scale reverse phase HPLC (2707 Autosampler, 2545 Quaternary Gradient Module, 2998 Photodiode Array Detector, and Fraction Collector III, Waters, Inc, Milford, MA) using an XBridge OST C18 OBD 19×50 mm column (Part No. 186008962, Waters, Inc, Milford, MA) with a gradient of increasing methanol in 0.1 M TEAA (aq.). For Cy5-hex, Cy5-Peg and Cy5-tBu containing sequences, LC fractions were concentrated to dryness directly from the 0.1 M TEAA buffer/methanol solution. […] Dried LC fractions were reconstituted in small volumes of water (Optima Grade), to keep concentration sufficiently high (25-50 μM) to visualize and separate low percentage impurities on LCMS. Purified fractions were combined, concentrated, then re-analyzed via LCMS for a final purity assessment.
Due to the overall poor solubility of the parent cyanine dye derivatives in water, the octanol-water partition coefficient (log P) could not be determined by the traditional “shake flask” method. In lieu of this approach, modelling software developed by Advanced Chemistry Development, Inc. was used to predict the partition coefficient and solubility in water (log S0), as shown in Table 2. As an additional means of comparison with direct relevance to the final intended utility of these oligos, the average concentration of methanol required to elute the DNA sequences containing the given dye from the reverse phase HPLC column was determined (the greater the methanol content required to elute, the more hydrophobic the dye). The DNA-dye sequences were utilized for this instead of the free dyes because they are capable of eluting at lower methanol content, but the hydrophobic character of the dye still dominates the elution profile. […] This is in close agreement with the relative “stickiness” of the DNA-dye sequences towards […] stationary phase.

Av. % MeOH for DNA-dye elution [%] | SMILES
30.5 | COc1ccc(C(OCCCN2C(=CC=CC=CC3=[N+](CCCO)c4ccc(Cl)cc4C3(C)C)C(C)(C)c3cc(Cl)ccc32)(c2ccccc2)c2ccccc2)cc1.[I-] [Cy5-Cl, 5,5′-dichloro-1-(3-hydroxypropyl)-1′-(3-monomethoxytritylpropyl)-tetramethyl-dicarboindocyanine iodide]
31.5 | COCCOCCOCCOc1ccc2c(c1)C(C)(C)C(=CC=CC=CC1=[N+](CCCO)c3ccc(OCCOCCOCCOC)cc3C1(C)C)N2CCCOC(c1ccccc1)(c1ccccc1)c1ccc(OC)cc1.[I-] [Cy5-Peg, 1-(3-hydroxypropyl)-1′-(3-monomethoxytritylpropyl)-5,5′-bis{2-[2-(2-methoxyethoxy)ethoxy]ethoxy}-3,3,3′,3′-tetramethyl-dicarboindocyanine iodide]
51 | CCCCCCOc1ccc2c(c1)C(C)(C)C(=CC=CC=CC1=[N+](CCCO)c3ccc(OCCCCCC)cc3C1(C)C)N2CCCOC(c1ccccc1)(c1ccccc1)c1ccc(OC)cc1.[I-] [Cy5-hex, 1-(3-hydroxypropyl)-1′-(3-monomethoxytritylpropyl)-5,5′-bis(n-hexyloxy)-3,3,3′,3′-tetramethyl-dicarboindocyanine iodide]
41 | COc1ccc(C(OCCCN2C(=CC=CC=CC3=[N+](CCCO)c4ccc(C(C)(C)C)cc4C3(C)C)C(C)(C)c3cc(C(C)(C)C)ccc32)(c2ccccc2)c2ccccc2)cc1.[I-] [Cy5-tBu, 1-(3-hydroxypropyl)-1′-(3-monomethoxytritylpropyl)-5,5′-bis(tert-butyl)-3,3,3′,3′-tetramethyl-dicarboindocyanine iodide]
